{"source": "patent US7678390B2", "about": "“Carbon monoxide as a biomarker and therapeutic agent” (priority 1999, dated 2010)", "key": {"MKK3(−/−) mice given LPS": {"test_system": "MKK3(−/−) mice given LPS", "test": "LPS-induced serum cytokines in MKK3(-/-) mice", "type": "in vivo, mouse", "conditions": "LPS 1 mg/kg, 250 ppm CO", "text": "(§1) Animals. Male C57BL/6 and IL-10 (−/−) mice were purchased from Jackson Laboratory (Bar Harbor, Me.), and allowed to acclimate for one week with rodent chow and water ad libitum. The MKK (−/−) mice were generated as previously described [Lu, et al., EMBO J. 18:1845-1857 (1999)]. Wild type littermates were used as controls. All animals were housed in accordance with guidelines from the American Association for Laboratory Animal Care and Research Protocols and were approved by the Animal Care and Use Committee of Yale University School of Medicine. Reagents. All reagents were purchased from Sigma Chemical Co. (St Louis, Mo.) unless specified otherwise. Plasmid Construct. Plasmid pSFFV/HO-1 was constructed by insertion of the rat HO-1 cDNA [Shibahara, et al., Proc. Natl. Acad. Sci. USA. 82: 7865-7869 (1985)] downstream of the Friend spleen focus-forming virus 5′ long-terminal repeat in the mammalian expression vector pSFFV/neo [Fuhlbrigge, et al, Proc. Natl. Acad. Sci. USA. 85: 5649-5653 (1988)] (kindly provided by Stanley Korsmeyer). Transfection. […] Gas samples were taken by the analyzer through a port in the top of the chambers at a rate of 1 L/min and analyzed by electrochemical detection, with a sensitivity of 10-600 ppm. Concentration levels were measured hourly and there were no fluctuations in the CO concentrations once the chamber had equilibrated (approximately 5 min). […]"}, "JNK": {"test_system": "JNK", "test": "LPS-induced MAP kinase activation, Western blot (JNK)", "type": "cell-based, mouse", "conditions": "RAW 264.7 macrophages, LPS in the presence of CO", "text": "as §1"}, "RAW 264.7 macrophages": {"test_system": "RAW 264.7 macrophages", "test": "LPS-induced cytokine production in macrophages (ELISA, Western)", "type": "cell-based, mouse", "conditions": "for TNF-α: RAW 264.7 macrophages", "text": "Animals. Male C57BL/6 and IL-10 (−/−) mice were purchased from Jackson Laboratory (Bar Harbor, Me.), and allowed to acclimate for one week with rodent chow and water ad libitum. The MKK (−/−) mice were generated as previously described [Lu, et al., EMBO J. 18:1845-1857 (1999)]. Wild type littermates were used as controls. All animals were housed in accordance with guidelines from the American Association for Laboratory Animal Care and Research Protocols and were approved by the Animal Care and Use Committee of Yale University School of Medicine. Reagents. All reagents were purchased from Sigma Chemical Co. (St Louis, Mo.) unless specified otherwise. Plasmid Construct. Plasmid pSFFV/HO-1 was constructed by insertion of the rat HO-1 cDNA [Shibahara, et al., Proc. Natl. Acad. Sci. USA. 82: 7865-7869 (1985)] downstream of the Friend spleen focus-forming virus 5′ long-terminal repeat in the mammalian expression vector pSFFV/neo [Fuhlbrigge, et al, Proc. Natl. Acad. Sci. USA. 85: 5649-5653 (1988)] (kindly provided by Stanley Korsmeyer). Transfection. Stable transfections were carried out by the calcium phosphate precipitation technique as previously described [Alam, J., J. Biol. Chem. 269: 25049-25056 (1994)]. Briefly, RAW cells were plated (1×10^6/10 cm plate) and 16 h later, transfected with […] of pSFFV/neo or pSFFV/HO-1. Cells were exposed to the DNA-CaPO4 precipitate for 6 h, shocked by a 1 min treatment with glycerol in phosphate-buffered saline and cultured for an additional 24 h in complete medium before addition of G418. Transfectants were selected over a 3-week period in the presence of G418 (up to […]) and individual clones were isolated by limited dilution. Cell Culture Experimentation. RAW 264.7 mouse peritoneal macrophages were purchased from […] (Rockville, Md.) and primary culture of rat pulmonary vascular smooth muscle cells were harvested from male Sprague Dawley rats (250-300 g) as previously described [Gunther, et al., J. Cell. Biol. 92: 289-298 (1982).]. Both cell types were grown in DMEM containing 10% FBS and gentamicin ([…]) in a humidified atmosphere of 5% CO2/balanced air or 250 ppm CO/5% CO2/balanced air. After a 2 h pretreatment with either CO or air, LPS ([…]) or sterile saline was added to the culture media and the culture plates were returned to the chamber(s). At various time points, cell plates were removed from the chamber to collect media and/or cells for Western analysis. CO Exposures. Mice or macrophages were exposed to compressed air or 250 ppm CO. For cell culture experiments, 5% CO2 was also present for buffering requirements. CO at a concentration of 1% (10,000 ppm) in compressed air was mixed with compressed air with or without CO2 in a stainless steel mixing cylinder before delivery into the exposure chamber. Flow into the 3.70-ft^2 plexiglass animal chamber was maintained at 12 L/min and into the 1.2 ft^2 cell culture chamber at a flow of 2 L/min. The cell culture chamber was humidified and maintained at 37° C. A CO analyzer (Interscan, Chatsworth, Calif.) was used to measure CO levels continuously in the chambers. Gas samples were taken by the analyzer through a port in the top of the chambers at a rate of 1 L/min and analyzed by electrochemical detection, with a sensitivity of 10-600 ppm. Concentration levels were measured hourly and there were no fluctuations in the CO concentrations once the chamber had equilibrated (approximately 5 min). Animal Experimentation. Mice were prebled from the retroorbital sinus (0.25 ml) and then exposed to CO (250 ppm) or room air for 1 h prior to administration of LPS (1 mg/kg, i.p.), E. coli serotype O127:B8. 1 and 16 h thereafter, they were removed from the exposure apparatus individually and a blood sample was obtained via the retroorbital sinus. After the blood collection, the mice were immediately returned to the exposure chamber. […]"}, "[1]": {"test_system": "rat pulmonary vascular smooth muscle cells", "test": "cGMP radioimmunoassay in vascular smooth muscle cells", "type": "cell-based", "conditions": "2 h", "text": "as §1"}}, "note": "Marks after values point to notes of the source that are not given here."}
{"smiles": "[C-]#[O+]", "note": "[CO, carbon monoxide]", "values": [{"measurement": "LPS-induced TNF-α production", "setting": "MKK3(−/−) mice given LPS", "value": "did not affect"}, {"measurement": "serum IL-10 levels after LPS", "setting": "MKK3(−/−) mice given LPS", "value": "did not exhibit augmented serum IL-10 levels"}, {"measurement": "LPS-induced JNK MAP kinase activation", "setting": "JNK", "value": "not affected"}, {"measurement": "LPS-induced TNF-α production (ELISA)", "setting": "RAW 264.7 macrophages; CO 250 ppm", "value": "significantly attenuated levels"}, {"measurement": "LPS-induced MIP-2", "setting": "RAW 264.7 macrophages; LPS, CO 250 ppm", "value": "not affecting"}, {"measurement": "LPS-induced IFN-g", "setting": "RAW 264.7 macrophages; LPS, CO (data not shown)", "value": "not affecting"}, {"measurement": "LPS-induced JE", "setting": "RAW 264.7 macrophages; LPS, CO (data not shown)", "value": "not affecting"}, {"measurement": "LPS-induced KC", "setting": "RAW 264.7 macrophages; LPS, CO (data not shown)", "value": "not affecting"}, {"measurement": "LPS-induced accumulation of IL-10", "setting": "RAW 264.7 macrophages; LPS, CO at 250 ppm", "value": "significantly augmented"}, {"measurement": "inhibition of TNF-α production in the media by ELISA", "setting": "RAW 264.7 macrophages; RAW 264.7 cells, LPS in the presence of CO", "value": "> 80", "unit": "%"}, {"measurement": "TNF-α", "setting": "RAW 264.7 macrophages; with LPS", "value": "230 ± 40^b pg/ml"}, {"measurement": "TNF-α", "setting": "RAW 264.7 macrophages; without LPS", "value": "15 ± 5", "unit": "pg/mL"}, {"measurement": "TNF-α protein expression by Western blot", "setting": "RAW 264.7 macrophages; cell lysates and media, LPS in the presence of CO", "value": "decreased TNF-α protein expression"}, {"measurement": "cGMP", "setting": "[1]; VSM (vascular smooth muscle cells), CO 250 ppm", "value": "8.1 ± 2^c pmol/mg protein"}, {"measurement": "increase in cGMP content", "setting": "[1]; smooth muscle cells, 250 ppm CO", "value": 16, "unit": "fold"}]}
